The subject of one assay is PKB (Akt). To be noted: read-out: Cellular PKB Mean IC50; MDA-MB-468 cells, phosphorylation of Serine-9 of GSK-3β, 2 hours incubation.
Another assay concerns the target AKT1 (PKBα) (Homo sapiens (Human), UniProt P31749). To be noted: read-out: In vitro PKBα Mean IC50; AKT1/PKBα active enzyme, Caliper LabChip LC3000.

AKT1 (PKBα), sequence (P31749 whole entry): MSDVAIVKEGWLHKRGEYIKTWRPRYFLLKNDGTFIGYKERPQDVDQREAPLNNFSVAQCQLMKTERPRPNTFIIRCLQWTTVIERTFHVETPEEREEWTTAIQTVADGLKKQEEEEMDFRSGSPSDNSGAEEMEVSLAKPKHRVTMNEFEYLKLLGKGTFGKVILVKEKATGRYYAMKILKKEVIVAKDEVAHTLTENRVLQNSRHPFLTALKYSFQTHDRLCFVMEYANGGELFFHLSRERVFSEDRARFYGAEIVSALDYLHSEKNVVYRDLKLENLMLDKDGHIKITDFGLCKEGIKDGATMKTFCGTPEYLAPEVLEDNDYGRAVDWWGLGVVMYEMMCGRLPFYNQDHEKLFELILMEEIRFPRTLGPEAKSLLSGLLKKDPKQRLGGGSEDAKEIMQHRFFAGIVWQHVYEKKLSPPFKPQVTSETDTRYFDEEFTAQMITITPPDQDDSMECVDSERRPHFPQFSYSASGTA

For the compound `NC1(C(=O)N[C@@H](CCO)c2ccc(Cl)cc2)CCN(c2ncnc3[nH]nc(Br)c23)CC1` [Example 33, 4-amino-1-(3-bromo-1H-pyrazolo[3,4-d]pyrimidin-4-yl)-N-[(1S)-1-(4-chlorophenyl)-3-hydroxypropyl]piperidine-4-carboxamide], the IC50 (in general, the concentration that gives 50% inhibition) with PKB (Akt) turned out to be 240 nM; on AKT1 (PKBα), 14 nM. Consider `NC1(C(=O)N[C@@H](CCO)c2cccc(Cl)c2)CCN(c2ncnc3[nH]ccc23)CC1` [Example 40, 4-amino-N-[(1S)-1-(3-chlorophenyl)-3-hydroxypropyl]-1-(7H-pyrrolo[2,3-d]pyrimidin-4-yl)piperidine-4-carboxamide], for which the figures for the 50% inhibitory concentration (IC50) with PKB (Akt) and on AKT1 (PKBα) were 1900 nM and 32 nM, respectively. The like results for `NC1(C(=O)N[C@@H](CCN2CCNCC2)c2ccc(Cl)cc2)CCN(c2ncnc3[nH]ccc23)CC1` [Example 53, 4-amino-N-[(1S)-1-(4-chlorophenyl)-3-piperazin-1-ylpropyl]-1-(7H-pyrrolo[2,3-d]pyrimidin-4-yl)piperidine-4-carboxamide] were, in that order, above 2400 nM and 6.3 nM.

With `CCN(CC)CC[C@H](NC(=O)C1(N)CCN(c2ncnc3[nH]ccc23)CC1)c1ccc(Cl)cc1` [Example 26, (S)-4-amino-N-(1-(4-chlorophenyl)-3-(diethylamino)propyl)-1-(7H-pyrrolo[2,3-d]pyrimidin-4-yl)piperidine-4-carboxamide], the half-inhibitory concentration (IC50) was found to be 90 nM in the assay on PKB (Akt) and 5.6 nM at AKT1 (PKBα).

As for `C[C@H](NC(=O)C1(N)CCN(c2ncnc3[nH]ccc23)CC1)c1ccc(C(F)(F)F)cc1` [Example 41, 4-amino-1-(7H-pyrrolo[2,3-d]pyrimidin-4-yl)-N-{(1S)-1-[4-(trifluoromethyl)phenyl]ethyl}piperidine-4-carboxamide], the half-inhibitory concentration (IC50) in the assay with PKB (Akt) came to 540 nM; on AKT1 (PKBα), 16 nM. With `C[C@@H](NC(=O)C1(N)CCN(c2ncnc3[nH]ccc23)CC1)c1ccc(Br)cc1` [Example 42, 4-amino-N-[(1R)-1-(4-bromophenyl)ethyl]-1-(7H-pyrrolo[2,3-d]pyrimidin-4-yl)piperidine-4-carboxamide], the figures for the concentration for half-maximal inhibition (IC50) in the assay on PKB (Akt) and at AKT1 (PKBα) were 4300 nM and 32 nM, respectively. In the case of `NC1(C(=O)N[C@@H](CCO)c2ccc(Cl)cc2)CCN(c2ncnc3[nH]cc(Br)c23)CC1` [Example 19, (S)-4-amino-1-(5-bromo-7H-pyrrolo[2,3-d]pyrimidin-4-yl)-N-(1-(4-chlorophenyl)-3-hydroxypropyl)piperidine-4-carboxamide], the half-maximal inhibitory concentration (IC50) in the assay on PKB (Akt) amounted to 260 nM. As to `NC1(C(=O)N[C@H](CCO)c2ccc(Cl)cc2)CCN(c2ncnc3[nH]ccc23)CC1` [Example 15, (R)-4-amino-N-(1-(4-chlorophenyl)-3-hydroxypropyl)-1-(7H-pyrrolo[2,3-d]pyrimidin-4-yl)piperidine-4-carboxamide], the IC50 with PKB (Akt) is above 3100 nM. On to `C[C@H](NC(=O)C1(N)CCN(c2ncnc3[nH]ccc23)CC1)c1ccc(C#N)cc1` [Example 39, 4-amino-N-[(1S)-1-(4-cyanophenyl)ethyl]-1-(7H-pyrrolo[2,3-d]pyrimidin-4-yl)piperidine-4-carboxamide], for which, in the assay with PKB (Akt), the concentration for half-maximal inhibition (IC50) is 1900 nM.

Regarding `NC1(C(=O)N[C@@H](CCO)c2ccc(Cl)cc2)CCN(c2ncnc3[nH]cc(C4CC4)c23)CC1` [Example 27, (S)-4-amino-N-(1-(4-chlorophenyl)-3-hydroxypropyl)-1-(5-cyclopropyl-7H-pyrrolo[2,3-d]pyrimidin-4-yl)piperidine-4-carboxamide], the IC50 with PKB (Akt) amounted to 370 nM. Turning to `NCC1(C(=O)NC(CCO)c2ccc(Cl)cc2)CCN(c2ncnc3[nH]ccc23)CC1` (centres unmarked) [Example 12, 4-(aminomethyl)-N-(1-(4-chlorophenyl)-3-hydroxypropyl)-1-(7H-pyrrolo[2,3-d]pyrimidin-4-yl)piperidine-4-carboxamide], the IC50 with PKB (Akt) was determined as 100 nM.

Values taken from US9492453B2 (priority 2007, dated 2016).
